What was measured:
[1] = test system: HuT78 cells; assay: TM7SF3 C>U RNA editing in HuT78 cells treated with mitochondrial inhibitors or thapsigargin; format: cell-based, human; conditions: HuT78, normoxia; for RNA editing level (TM7SF3): 0.5×10^6 cells per 500 μl, inhibitor 1 μM
From the text: We tested the effect of inhibitors of mitochondrial complex II by atpenin A5 (AtA5) and of the complex III by myxothiazol (MXT) on RNA editing in HuT78 cells cultured in normoxia. Additionally, to test whether endoplasmic reticulum (ER) stress can also induce RNA editing, we treated the cells with Thapsigargin (Tg). Tg is considered to induce ER stress by raising intracellular calcium levels and lowers the ER calcium levels by specifically inhibiting the endoplasmic reticulum Ca^++ ATPase, resulting in the accumulation of unfolded proteins and an increased accumulation eIF-2α phosphorylated at Ser 51 (FIGS. 33c and 35b). To test the effect of hypoxic stress alone on HuT78 cells, we reduced the cell density to avoid cellular crowding and cultured the cells at an intermediate density of 0.5×10^6 cells per 500 μl per well in 24 well plates with or without the chemical inhibitors in normoxia, and hypoxia alone for one or two days. Under these conditions, we determined RNA editing level and the stabilization of HIF-1α in these cells. […] RNA editing levels increased to approximately 30% in cells treated with MXT, AtA5 or hypoxia alone on day 2. […] Furthermore, HIF-1α was stabilized only when the cells were subjected to hypoxia but not in normoxia in the presence or absence of the mitochondrial inhibitors (FIG. 32c).
(§1) For testing the mitochondrial inhibitors, HuT78 and NK-92 cells were cultured at […] cells per 0.5 ml in 24 well plates in normoxia with or without AtA5 and MXT or hypoxia alone for 2 days at 37° C.
(§2) Human IFN-γ was obtained from PeproTech and used at a concentration of 50 ng/ml. AtA5 (Cayman chemical #11898) and MXT (Sigma Aldrich #T5580) was used at a concentration of 1 μM.
(§3) Total RNA was isolated and reverse transcribed to generate cDNAs. DNA primers used for PCR were obtained from Integrated DNA Technologies and are noted in Table 6. Primers used for PCR of cDNA templates were designed such that the amplicons spanned multiple exons. […] To quantify RNA editing level, the major and minor chromatogram peak heights at putative edited nucleotides were quantified with Sequencher 5.0/5.1 software (Gene Codes, MI). […] For quantitative PCR to assess APOBEC3G and APOBEC3F gene expression, reactions using LightCycler™ 480 Probes Master and SYBR™ Green I dye were performed on a LightCycler™ 480 System (Roche). Quantification cycle (Cq) values were calculated by the instrument software using the maximum second derivative method, and the mean Cq value of duplicate PCR reactions was used for analysis.

[2] = test system: NK-92 cells; assay: TM7SF3 C>U RNA editing in NK-92 cells treated with mitochondrial inhibitors; format: cell-based, human; conditions: NK-92, normoxia, intermediate density, 24 well plates, inhibitor 1 μM, 2 days
Description: We treated NK-92 cells with normoxia with or without the mitochondrial inhibitors (AtA5 or MXT) or hypoxia alone at intermediate density in 24 well plates for 2 days. […] The reason behind the difference in hypoxia induced RNA editing level of HuT78 and NK-92 cells may be due to metabolic differences between the two cell lines.
as §1, §2
as §3, with “cDNAs.” for “cDNAs. DNA primers used for PCR were obtained from Integrated DNA Technologies and are noted in Table 6. Primers used for PCR of cDNA templates were designed such that the amplicons spanned multiple exons.”

[3] = target: T1, APOBEC3A (Homo sapiens, UniProt P31941); assay: In vitro SDHB RNA editing assay with purified APOBEC3A; format: biochemical; conditions: chelation of zinc with 10 μM 1,10-phenanthroline, 2 hours at 37° C
T1 construct: made in house; host or cells: Rosetta 2(DE3)pLysS E. coli; pET21 construct from Dr. Jinwoo Ahn
T1 sequence (P31941 whole entry): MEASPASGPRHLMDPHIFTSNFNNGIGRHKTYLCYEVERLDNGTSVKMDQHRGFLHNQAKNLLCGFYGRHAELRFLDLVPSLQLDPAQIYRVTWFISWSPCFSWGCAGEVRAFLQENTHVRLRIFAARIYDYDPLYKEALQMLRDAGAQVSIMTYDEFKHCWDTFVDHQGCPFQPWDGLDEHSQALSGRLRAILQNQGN
Description: Rosetta™ 2(DE3)pLysS E. coli (EMD Millipore®) transformed with a bacterial expression construct for C-His6-tagged APOBEC3A and grown in Luria broth at 37° C. were induced for expression of the recombinant protein with 0.3 mM isopropyl β-D-1-thiogalactopyranoside (IPTG) and cultured overnight at 18° C. Harvested cells were lysed with a French pressure cell (American Instrument Corporation®, Hartland, Wis.) and Ni-NTA His.Bind Resin™ (EMD Millipore®) was used as per manufacturer's instructions to purify APOBEC3A protein from the lysates by affinity chromatography. Isolated protein was concentrated using an Amicon™ Ultra-4 Centrifugal Filter Unit with Ultracel-3 membrane (EMD Millipore®; nominal molecular weight limit of 3 kDa). The concentrated protein was stored in 25 mM Tris (pH 8.0) with 50 mM NaCl, 1 mM DTT, 5% v/v glycerol, and 0.02% w/v sodium azide.
Whole cell lysates of 293T transfectants were prepared using lysis buffer containing 0.2% Surfact-Amps™ NP-40 (Thermo Fisher®), 30 mM 4-(2-hydroxyethyl)-1-piperazine-ethane-sulfonic acid (HEPES; pH 7.5), 100 mM KCl, 25 mM NaCl, 1.5 mM MgCl2, 1 mM DTT, and 0.5× Halt™ protease and phosphatase inhibitor cocktail, and stored with 10% v/v glycerol at −80° C. […]

## C/C=C(/C)C(=O)O[C@H]1C(C)=C2[C@H]([C@@H]1OC(=O)CCCCCCC)[C@@](C)(OC(C)=O)C[C@H](OC(=O)CCC)[C@@]1(O)[C@H]2OC(=O)[C@@]1(C)O [Tg, Thapsigargin]
[1]; one or two days
  induction of RNA editing (TM7SF3): did not induce RNA editing

## CO/C(=C/C(N)=O)[C@H](C)[C@H](/C=C/c1csc(-c2csc([C@@H](C)/C=C/C=C/C(C)C)n2)n1)OC [MXT, myxothiazol]
[2]
  RNA editing level (TM7SF3): ~25%
[1]; day 1
  RNA editing level (TM7SF3): approximately 10%
[1]; day 2
  RNA editing level (TM7SF3): approximately 30%

## COc1[nH]c(=O)c(C(=O)[C@@H](C)C[C@H](C)[C@@H](Cl)CCl)c(O)c1OC [AtA5, atpenin A5]
[2]
  RNA editing level (TM7SF3): ~25%
[1]; day 2
  RNA editing level (TM7SF3): approximately 30%

## c1cnc2c(c1)ccc1cccnc12 [1,10-phenanthroline]
[3]
  c.136C>U editing of SDHB RNA by His6-tagged APOBEC3A: abolished the editing
